Measurements reported in ChEMBL document CHEMBL1201862, “PubChem BioAssay data set” (2004).
The source made the active and inactive calls.

Tests used:
[1] = biological target: Eukaryotic translation initiation factor 4E (Mus musculus, UniProt P63073); assay: eIF4E–eIF4G protein interaction inhibitors, dose response, biochemical, TR-FRET (AID 855); assay type: functional;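 note: potency for disrupting eIF4E binding to eIF4GI seen as loss of FRET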
[2] = biological target: Peroxisome proliferator-activated receptor gamma/Nuclear receptor coactivator 1 (Homo sapiens, UniProt P37231); assay: (§1) TR-FRET dose response biochemical High Throughput Screening assay for agonists of the steroid receptor coactivator 1 (SRC-1) recruitment by the peroxisome proliferator-activated receptor gamma (PPAR gamma): non-selective agonists. [Related pubchem assays (depositor defined):AID1300, AID1808, AID504735, AID631]; assay type: protein assay
[3] = biological target: Peroxisome proliferator-activated receptor gamma/Nuclear receptor coactivator 3 (Homo sapiens, UniProt P37231); assay: as §1, with “3 (SRC-3)” for “1 (SRC-1)”, “assays: 1301 (Confirmation screen.), 1048 (Primary screen.)]” for “assays (depositor defined):AID1300, AID1808, AID504735, AID631]”; assay type: functional
[4] = biological target: Peroxisome proliferator-activated receptor gamma/Nuclear receptor coactivator 2 (Homo sapiens, UniProt P37231); assay: TR-FRET dose response biochemical High Throughput Screening assay for agonists of the steroid receptor coactivator 2 (SRC-2) recruitment by the peroxisome proliferator-activated receptor gamma (PPAR gamma): non-selective agonists. [Related pubchem assays: 1297, 1032 ]; assay type: functional
[5] = cytotoxicity in HEK-293T cells, dose response, cytotoxicity control for BCR NF-kB inhibitor project, luminescence, B-cell screen hits (AID 489021); assay type: functional, cell-based;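 note: HEK-293T cells carrying an NF-kB luciferase reporter; cells exposed to compound for about 14 hours before viability readout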
[6] = biological target: DNA dC->dU-editing enzyme APOBEC-3A (Homo sapiens, UniProt P31941); assay: Dose Response confirmation of small molecule APOBEC3A DNA Deaminase Inhibitors via a fluorescence-based single-stranded DNA deaminase assay. [Related pubchem assays (depositor defined):AID493011, AID493024]; assay type: functional
[7] = biological target: DNA dC->dU-editing enzyme APOBEC-3G (Homo sapiens, UniProt Q9HC16); assay type: functional;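 note: Dose-response counterscreen measuring inhibition of APOBEC3G DNA deaminase activity, run while confirming APOBEC3A inhibitors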
[8] = biological target: T1, RNA-binding protein pos-1 (Caenorhabditis elegans, UniProt G5EF15); assay: inhibitors of POS-1/mex-3 RNA binding, dose response, biochemical, fluorescence polarization (AID 1964);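 note: purified POS-1 fused to maltose binding protein made in E. coli; potency of compounds blocking POS-1 binding to fluorescent RNA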
T1 sequence (G5EF15 whole entry): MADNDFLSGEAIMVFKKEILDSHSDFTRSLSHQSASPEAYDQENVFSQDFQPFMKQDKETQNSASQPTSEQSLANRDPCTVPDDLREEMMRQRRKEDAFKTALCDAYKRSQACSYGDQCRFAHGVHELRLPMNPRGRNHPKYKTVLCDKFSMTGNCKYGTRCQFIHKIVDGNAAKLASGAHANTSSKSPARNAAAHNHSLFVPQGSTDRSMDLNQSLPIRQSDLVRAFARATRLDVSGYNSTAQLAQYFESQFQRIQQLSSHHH

[9] = biological target: T2, Zinc finger protein mex-5 (Caenorhabditis elegans, UniProt Q9XUB2); assay: MEX-5/TCR-2 RNA interaction inhibitors, dose response, biochemical, C. elegans, fluorescence polarization (AID 1960)
T2 sequence (Q9XUB2 whole entry): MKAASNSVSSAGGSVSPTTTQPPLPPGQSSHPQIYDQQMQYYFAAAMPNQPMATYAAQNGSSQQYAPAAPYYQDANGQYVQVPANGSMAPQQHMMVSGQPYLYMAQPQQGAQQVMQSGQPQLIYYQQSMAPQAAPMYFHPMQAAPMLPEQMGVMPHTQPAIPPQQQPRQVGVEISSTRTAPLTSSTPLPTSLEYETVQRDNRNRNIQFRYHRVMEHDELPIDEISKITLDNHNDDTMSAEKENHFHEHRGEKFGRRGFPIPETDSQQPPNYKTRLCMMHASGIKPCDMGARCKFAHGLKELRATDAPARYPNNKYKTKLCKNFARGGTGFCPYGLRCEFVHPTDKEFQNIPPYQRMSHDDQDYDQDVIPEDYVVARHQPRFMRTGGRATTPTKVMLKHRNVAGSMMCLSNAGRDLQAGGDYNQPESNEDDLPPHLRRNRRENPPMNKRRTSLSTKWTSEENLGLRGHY

Keap1/Nrf2 = Keap1/Nrf2 (Homo sapiens, UniProt Q14145); assay: Keap1-Nrf2 protein-protein interaction inhibitors, dose response, biochemical, fluorescence polarization, cherry-picked samples (AID 588683)
Hexokinase HKDC1 = biological target: T3, Hexokinase HKDC1 (Homo sapiens, UniProt Q2TB90); assay: HKDC1 hexokinase inhibitors, dose response, biochemical, W721R variant (AID 504729); assay type: functional
T3 sequence (Q2TB90 whole entry): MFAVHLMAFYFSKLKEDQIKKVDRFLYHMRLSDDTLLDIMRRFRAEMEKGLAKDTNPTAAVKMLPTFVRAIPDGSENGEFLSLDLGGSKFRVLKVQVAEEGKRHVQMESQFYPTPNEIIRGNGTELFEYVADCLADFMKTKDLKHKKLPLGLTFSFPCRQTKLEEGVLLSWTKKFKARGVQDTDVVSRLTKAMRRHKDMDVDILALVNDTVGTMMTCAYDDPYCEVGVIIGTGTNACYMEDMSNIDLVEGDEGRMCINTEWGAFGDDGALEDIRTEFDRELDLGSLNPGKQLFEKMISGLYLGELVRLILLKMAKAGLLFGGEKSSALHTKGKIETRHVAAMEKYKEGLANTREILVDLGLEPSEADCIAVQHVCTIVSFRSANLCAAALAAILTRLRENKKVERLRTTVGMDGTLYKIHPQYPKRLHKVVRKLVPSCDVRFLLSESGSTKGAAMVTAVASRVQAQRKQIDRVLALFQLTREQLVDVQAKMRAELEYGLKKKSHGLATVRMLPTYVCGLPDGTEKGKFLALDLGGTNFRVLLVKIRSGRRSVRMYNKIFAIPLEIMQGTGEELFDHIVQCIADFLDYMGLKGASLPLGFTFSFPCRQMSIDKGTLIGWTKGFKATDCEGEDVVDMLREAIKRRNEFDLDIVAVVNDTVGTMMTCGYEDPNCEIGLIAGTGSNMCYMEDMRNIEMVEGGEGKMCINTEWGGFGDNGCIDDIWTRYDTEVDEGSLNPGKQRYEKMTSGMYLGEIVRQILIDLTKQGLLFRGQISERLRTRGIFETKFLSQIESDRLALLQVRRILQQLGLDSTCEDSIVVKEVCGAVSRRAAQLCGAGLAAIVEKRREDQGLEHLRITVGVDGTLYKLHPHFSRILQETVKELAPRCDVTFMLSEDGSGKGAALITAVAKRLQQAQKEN

[10] = biological target: T4, Replicative DNA helicase DnaB (Mycobacterium tuberculosis, UniProt P9WMR3); assay: DnaB intein splicing inhibitors, dose response, biochemical, cell-free fluorescence (AID 449749); assay type: functional
T4 sequence (P9WMR3 whole entry): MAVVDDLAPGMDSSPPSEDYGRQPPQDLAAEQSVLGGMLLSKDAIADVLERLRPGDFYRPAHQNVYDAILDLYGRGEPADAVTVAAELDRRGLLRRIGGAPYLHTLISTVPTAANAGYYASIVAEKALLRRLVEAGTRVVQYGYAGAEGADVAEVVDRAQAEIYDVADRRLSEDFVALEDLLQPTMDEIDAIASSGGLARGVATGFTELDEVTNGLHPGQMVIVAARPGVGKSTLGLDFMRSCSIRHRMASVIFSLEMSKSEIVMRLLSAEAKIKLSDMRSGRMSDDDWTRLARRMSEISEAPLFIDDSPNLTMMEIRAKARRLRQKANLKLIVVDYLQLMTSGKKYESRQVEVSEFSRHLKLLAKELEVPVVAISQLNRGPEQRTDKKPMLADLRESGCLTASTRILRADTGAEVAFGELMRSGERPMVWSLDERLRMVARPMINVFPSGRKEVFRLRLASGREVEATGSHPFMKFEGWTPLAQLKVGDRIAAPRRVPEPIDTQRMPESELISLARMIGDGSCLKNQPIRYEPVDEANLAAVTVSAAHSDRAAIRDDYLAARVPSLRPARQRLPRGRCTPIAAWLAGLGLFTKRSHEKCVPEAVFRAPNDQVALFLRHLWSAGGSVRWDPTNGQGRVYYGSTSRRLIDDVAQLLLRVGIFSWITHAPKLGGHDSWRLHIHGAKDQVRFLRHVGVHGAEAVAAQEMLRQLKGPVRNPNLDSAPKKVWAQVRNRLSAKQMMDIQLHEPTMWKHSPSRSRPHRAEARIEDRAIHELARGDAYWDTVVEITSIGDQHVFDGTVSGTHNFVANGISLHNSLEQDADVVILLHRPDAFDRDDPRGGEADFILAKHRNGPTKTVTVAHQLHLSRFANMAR

Protein RecA = biological target: T5, Protein RecA (Mycobacterium tuberculosis, UniProt P9WHJ3); assay: Fluorescence Cell-Free Homogeneous Dose Retest to Identify Inhibitors of RecA-Intein Splicing Activity. [Related pubchem assays (depositor defined):AID2097, AID2223, AID489010, AID492950]; assay type: functional
T5 sequence (P9WHJ3 whole entry): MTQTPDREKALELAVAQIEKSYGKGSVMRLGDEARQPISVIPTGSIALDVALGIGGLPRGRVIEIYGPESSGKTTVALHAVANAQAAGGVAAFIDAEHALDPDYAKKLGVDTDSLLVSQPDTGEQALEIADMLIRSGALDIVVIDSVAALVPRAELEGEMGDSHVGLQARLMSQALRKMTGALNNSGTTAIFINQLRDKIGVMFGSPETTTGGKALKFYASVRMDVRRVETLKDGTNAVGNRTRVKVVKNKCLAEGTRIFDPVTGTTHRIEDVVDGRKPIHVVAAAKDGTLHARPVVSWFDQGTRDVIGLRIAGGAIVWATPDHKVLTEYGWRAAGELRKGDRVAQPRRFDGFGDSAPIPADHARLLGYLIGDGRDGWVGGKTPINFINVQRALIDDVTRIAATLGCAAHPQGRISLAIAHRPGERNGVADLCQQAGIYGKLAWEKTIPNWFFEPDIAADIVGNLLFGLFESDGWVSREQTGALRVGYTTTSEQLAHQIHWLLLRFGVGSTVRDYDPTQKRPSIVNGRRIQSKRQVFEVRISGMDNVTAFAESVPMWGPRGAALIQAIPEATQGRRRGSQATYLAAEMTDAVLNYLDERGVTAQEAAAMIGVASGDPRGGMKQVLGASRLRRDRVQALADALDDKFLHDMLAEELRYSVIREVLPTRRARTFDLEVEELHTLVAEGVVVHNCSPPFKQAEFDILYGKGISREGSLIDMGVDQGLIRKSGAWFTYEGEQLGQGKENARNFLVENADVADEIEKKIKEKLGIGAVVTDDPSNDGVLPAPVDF

[11] = biological target: T6, Carboxy-terminal domain RNA polymerase II polypeptide A small phosphatase 1 (Homo sapiens, UniProt Q9GZU7); assay: inhibitors of CTDSP1, concentration-response testing, biochemical assay, absorbance-based, actives from ultra-high-throughput screening (AID 540297); assay type: functional
T6 sequence (Q9GZU7 whole entry): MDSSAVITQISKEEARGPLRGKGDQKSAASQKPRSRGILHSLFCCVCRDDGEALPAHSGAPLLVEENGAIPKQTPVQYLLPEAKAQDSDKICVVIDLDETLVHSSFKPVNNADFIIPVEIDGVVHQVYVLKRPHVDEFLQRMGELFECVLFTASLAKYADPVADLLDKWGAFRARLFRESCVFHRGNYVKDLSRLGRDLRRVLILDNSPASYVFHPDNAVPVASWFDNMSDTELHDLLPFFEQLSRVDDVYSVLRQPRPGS

Tumor necrosis factor = Tumor necrosis factor (Homo sapiens, UniProt P01375); assay: TNFa-triggered NF-kB activation inhibitors, SAR follow-up, cell-based, revised (AID 2337); assay type: functional
HEK293 = assay: cells; settings: Homo sapiens

Eukaryotic translation initiation factor 4E, sequence (P63073 whole entry): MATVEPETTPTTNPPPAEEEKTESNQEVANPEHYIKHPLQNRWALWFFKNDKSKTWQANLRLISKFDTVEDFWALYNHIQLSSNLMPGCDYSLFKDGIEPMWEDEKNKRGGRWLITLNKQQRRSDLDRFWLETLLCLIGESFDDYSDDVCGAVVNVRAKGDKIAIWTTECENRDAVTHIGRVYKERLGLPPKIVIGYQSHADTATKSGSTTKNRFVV
DNA dC->dU-editing enzyme APOBEC-3A, sequence (P31941 whole entry): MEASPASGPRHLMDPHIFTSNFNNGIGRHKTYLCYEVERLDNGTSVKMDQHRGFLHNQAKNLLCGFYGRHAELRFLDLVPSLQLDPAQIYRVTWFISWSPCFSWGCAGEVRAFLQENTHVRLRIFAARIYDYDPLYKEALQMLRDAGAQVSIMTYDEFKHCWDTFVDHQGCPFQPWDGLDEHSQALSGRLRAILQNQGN
DNA dC->dU-editing enzyme APOBEC-3G, sequence (Q9HC16 whole entry, the tested form may be a part): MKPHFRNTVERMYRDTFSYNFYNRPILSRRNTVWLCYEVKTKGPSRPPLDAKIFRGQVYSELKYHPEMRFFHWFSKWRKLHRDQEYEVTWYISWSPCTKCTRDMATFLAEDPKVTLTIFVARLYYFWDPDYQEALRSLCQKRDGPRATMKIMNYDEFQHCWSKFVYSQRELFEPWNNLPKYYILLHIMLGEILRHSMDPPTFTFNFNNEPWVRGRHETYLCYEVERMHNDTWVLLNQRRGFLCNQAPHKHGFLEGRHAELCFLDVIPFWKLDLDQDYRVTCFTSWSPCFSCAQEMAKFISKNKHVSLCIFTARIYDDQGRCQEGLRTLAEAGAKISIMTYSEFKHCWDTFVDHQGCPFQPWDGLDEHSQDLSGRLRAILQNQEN
Keap1/Nrf2, sequence (Q16236 whole entry): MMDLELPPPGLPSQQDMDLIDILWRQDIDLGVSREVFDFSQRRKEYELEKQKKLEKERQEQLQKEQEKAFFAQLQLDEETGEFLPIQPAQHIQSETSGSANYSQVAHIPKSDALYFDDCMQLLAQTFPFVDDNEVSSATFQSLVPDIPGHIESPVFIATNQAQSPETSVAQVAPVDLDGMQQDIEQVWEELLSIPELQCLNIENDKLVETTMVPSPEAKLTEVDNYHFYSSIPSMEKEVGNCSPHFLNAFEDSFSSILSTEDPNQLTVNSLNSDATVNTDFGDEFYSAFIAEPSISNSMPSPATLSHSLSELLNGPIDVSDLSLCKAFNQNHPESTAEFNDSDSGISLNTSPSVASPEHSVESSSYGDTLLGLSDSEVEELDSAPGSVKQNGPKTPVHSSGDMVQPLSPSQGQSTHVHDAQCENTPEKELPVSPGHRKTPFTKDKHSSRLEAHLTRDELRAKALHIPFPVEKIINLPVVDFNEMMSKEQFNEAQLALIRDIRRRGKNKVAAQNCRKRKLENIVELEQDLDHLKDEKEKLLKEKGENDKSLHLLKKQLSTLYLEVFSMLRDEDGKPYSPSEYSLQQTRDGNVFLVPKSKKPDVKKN
Keap1/Nrf2, sequence (Q14145 whole entry): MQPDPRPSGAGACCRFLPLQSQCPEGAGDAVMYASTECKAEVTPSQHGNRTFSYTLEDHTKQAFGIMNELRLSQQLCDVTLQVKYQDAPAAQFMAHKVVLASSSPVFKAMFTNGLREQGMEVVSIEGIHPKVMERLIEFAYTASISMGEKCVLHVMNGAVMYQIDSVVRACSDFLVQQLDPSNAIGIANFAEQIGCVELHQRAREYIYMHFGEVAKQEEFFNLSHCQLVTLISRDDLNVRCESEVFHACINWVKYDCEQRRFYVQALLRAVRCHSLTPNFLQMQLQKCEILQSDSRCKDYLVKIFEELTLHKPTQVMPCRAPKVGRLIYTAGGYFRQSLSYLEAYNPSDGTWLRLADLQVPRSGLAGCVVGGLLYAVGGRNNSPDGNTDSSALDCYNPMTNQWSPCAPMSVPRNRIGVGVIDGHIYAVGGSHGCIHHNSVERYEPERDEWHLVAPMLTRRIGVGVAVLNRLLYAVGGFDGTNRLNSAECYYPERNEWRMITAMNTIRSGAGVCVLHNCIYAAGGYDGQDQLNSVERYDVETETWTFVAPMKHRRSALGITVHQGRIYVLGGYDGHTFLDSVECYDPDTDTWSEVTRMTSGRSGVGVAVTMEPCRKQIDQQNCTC
Tumor necrosis factor, sequence (P01375 whole entry): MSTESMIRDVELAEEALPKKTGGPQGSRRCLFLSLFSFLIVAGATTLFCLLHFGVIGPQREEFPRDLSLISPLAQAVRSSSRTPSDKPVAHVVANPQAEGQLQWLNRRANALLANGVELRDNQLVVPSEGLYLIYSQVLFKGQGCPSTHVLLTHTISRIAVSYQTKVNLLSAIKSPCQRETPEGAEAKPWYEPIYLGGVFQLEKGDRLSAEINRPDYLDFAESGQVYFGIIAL
Peroxisome proliferator-activated receptor gamma/Nuclear receptor coactivator 3, sequence (P37231 whole entry): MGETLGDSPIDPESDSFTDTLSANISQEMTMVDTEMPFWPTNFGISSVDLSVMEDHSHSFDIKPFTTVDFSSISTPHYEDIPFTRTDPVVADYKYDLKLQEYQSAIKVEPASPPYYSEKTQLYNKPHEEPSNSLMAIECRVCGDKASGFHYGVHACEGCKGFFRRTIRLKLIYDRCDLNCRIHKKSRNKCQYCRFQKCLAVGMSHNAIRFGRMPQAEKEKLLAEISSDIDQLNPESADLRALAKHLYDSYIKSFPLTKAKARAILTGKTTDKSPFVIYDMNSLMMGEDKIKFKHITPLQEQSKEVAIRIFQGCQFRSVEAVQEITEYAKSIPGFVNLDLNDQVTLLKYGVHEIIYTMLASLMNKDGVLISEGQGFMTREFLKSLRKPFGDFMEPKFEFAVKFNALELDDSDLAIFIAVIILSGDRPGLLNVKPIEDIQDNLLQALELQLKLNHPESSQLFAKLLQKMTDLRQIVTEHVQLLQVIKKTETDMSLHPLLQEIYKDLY
Peroxisome proliferator-activated receptor gamma/Nuclear receptor coactivator 3, sequence (Q9Y6Q9 whole entry, further chain): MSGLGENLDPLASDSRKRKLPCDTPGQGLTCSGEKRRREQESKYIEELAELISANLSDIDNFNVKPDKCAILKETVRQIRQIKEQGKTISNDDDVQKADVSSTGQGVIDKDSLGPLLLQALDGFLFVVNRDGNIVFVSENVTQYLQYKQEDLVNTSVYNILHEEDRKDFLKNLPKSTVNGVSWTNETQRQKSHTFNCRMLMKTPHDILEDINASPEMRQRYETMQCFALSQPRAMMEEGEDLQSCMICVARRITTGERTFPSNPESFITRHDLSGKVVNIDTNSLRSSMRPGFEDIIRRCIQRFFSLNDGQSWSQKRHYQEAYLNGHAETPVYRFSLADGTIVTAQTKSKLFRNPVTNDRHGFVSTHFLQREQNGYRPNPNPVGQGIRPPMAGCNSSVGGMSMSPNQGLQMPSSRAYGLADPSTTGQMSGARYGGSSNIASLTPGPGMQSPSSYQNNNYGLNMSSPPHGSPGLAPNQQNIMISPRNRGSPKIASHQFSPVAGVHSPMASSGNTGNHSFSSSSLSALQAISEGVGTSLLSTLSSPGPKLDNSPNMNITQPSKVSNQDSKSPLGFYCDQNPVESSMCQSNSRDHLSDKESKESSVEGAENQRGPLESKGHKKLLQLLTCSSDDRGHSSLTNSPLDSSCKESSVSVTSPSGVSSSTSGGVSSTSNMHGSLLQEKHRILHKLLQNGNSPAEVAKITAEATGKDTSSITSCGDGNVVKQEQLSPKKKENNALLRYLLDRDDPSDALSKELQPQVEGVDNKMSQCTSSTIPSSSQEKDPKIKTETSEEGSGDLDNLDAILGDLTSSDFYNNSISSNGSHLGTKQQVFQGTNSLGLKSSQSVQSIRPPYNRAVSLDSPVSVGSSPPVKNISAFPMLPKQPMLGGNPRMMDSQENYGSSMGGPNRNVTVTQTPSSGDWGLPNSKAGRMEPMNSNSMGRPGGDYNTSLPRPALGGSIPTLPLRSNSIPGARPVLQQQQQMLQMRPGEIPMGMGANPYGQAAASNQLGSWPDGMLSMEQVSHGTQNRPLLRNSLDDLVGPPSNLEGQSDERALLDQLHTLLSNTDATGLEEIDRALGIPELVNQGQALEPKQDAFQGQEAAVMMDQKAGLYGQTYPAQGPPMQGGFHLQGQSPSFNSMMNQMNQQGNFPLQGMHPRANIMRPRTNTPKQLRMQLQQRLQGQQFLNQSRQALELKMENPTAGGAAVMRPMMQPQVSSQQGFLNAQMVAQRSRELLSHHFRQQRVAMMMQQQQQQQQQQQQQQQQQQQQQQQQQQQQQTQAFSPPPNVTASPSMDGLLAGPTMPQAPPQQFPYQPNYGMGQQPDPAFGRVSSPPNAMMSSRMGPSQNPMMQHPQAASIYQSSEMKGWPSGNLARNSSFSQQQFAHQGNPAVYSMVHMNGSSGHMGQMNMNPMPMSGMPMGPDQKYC

## c1csc(-c2nn3c(Cn4cnc5ccccc54)nnc3s2)c1
[1]
  IC50: > 64 µM (inactive)
cells
  IC50: < 100 nM (active)

## CCn1c(=O)cc(SCC(=O)N2CCN(C(=O)c3ccco3)CC2)c2ccccc21
[2]
  EC50: > 79.4 µM (inactive)
[3]
  EC50: > 79.4 µM (not active)
[4]
  EC50: > 79.4 µM (not active)
[5]
  IC50: > 80 µM (inactive)

## O=C(Nc1ccccc1F)c1ccc(CSc2ncccn2)cc1
[6]
  IC50: 4.88 µM (active)
[7]
  IC50: 9.71 µM (active)

## N#C/C(=C\c1c[nH]c2ccccc12)C(=O)NCC1CCCO1 (configuration not stated)
[6]
  IC50: 5.69 µM (active)
[7]
  IC50: 5.05 µM (active)

## CCOC(=O)C1CCN(C(=O)Cc2cccc3ccccc23)CC1
[6]
  IC50: 5.89 µM (active)
[7]
  IC50: 5.83 µM (active)

## COc1ccc2nc3ccccc3nc2c1NC(=O)c1ccccc1Cl
[8]
  EC50: > 300 µM (not active)
[9]
  EC50: > 300 µM (not active)
Keap1/Nrf2
  AC50: 29.2 µM (active)

## CCOc1ccc(N(CC(=O)Nc2ccccc2)S(C)(=O)=O)cc1
[6]
  IC50: 3.89 µM (active)
[7]
  IC50: 4.76 µM (active)

## C[n+]1cc(-c2ccccc2)n2c1CCCCC2
[6]
  IC50: 1.66 µM (active)
[7]
  IC50: 2.3 µM (active)

## COc1ccc(-c2ccc(N(C)C)cc2)cc1[C@H]1[C@H]2C=CC[C@@H](C)[C@@H]2C(=O)N1Cc1ccccc1
[5]
  IC50: > 80 µM (inactive)

## CC(C)(C)c1c(Cl)c(O)c(-c2ccccc2)c(=O)n1-c1ccccc1
[1]
  IC50: 14.1 µM (active)
Hexokinase HKDC1
  IC50: 8.83 µM (active)
[10]
  AC50: 20.1 µM (active)
Protein RecA
  EC50: 27.2 µM (active)

## COc1ccc(OC)c(NC(=O)COC(=O)c2cc3c(s2)CCC3)c1
[1]
  IC50: 50 µM (inactive)
[11]
  IC50: 2.39 µM (active)

## CSc1ccc(NC(=O)c2ccc(CN3CCCCC3)cc2)cc1
Tumor necrosis factor
  IC50: 19.6 µM (active)
HEK293
  IC50: > 20 µM (inactive)

## COc1ccc(Br)cc1CNCC1CCCO1 (configuration not stated)
Keap1/Nrf2
  AC50: > 52 µM (inactive)

## CC1=C[C@@H]2c3cccc4[nH]cc(c34)C[C@H]2N(C)C1 [AGROCLAVINE]
[8]
  EC50: 11.2 µM (active)
[9]
  EC50: 8.67 µM (inconclusive)
Keap1/Nrf2
  AC50: 38.4 µM (active)
